SMILES strings stand for the structures. Where a name gives a salt, the structure may show the parent alone.

The test has as its target T1, dopamine transporter (DAT) (Homo sapiens, UniProt Q01959).
T1 construct: gene SLC6A3; human recombinant, CHO cells
Kind of test: Cerep DAT affinity assay, human recombinant CHO cells (called radioligand in the Discussion, functional in Methods). Format: binding.

T1 sequence (Q01959 whole entry): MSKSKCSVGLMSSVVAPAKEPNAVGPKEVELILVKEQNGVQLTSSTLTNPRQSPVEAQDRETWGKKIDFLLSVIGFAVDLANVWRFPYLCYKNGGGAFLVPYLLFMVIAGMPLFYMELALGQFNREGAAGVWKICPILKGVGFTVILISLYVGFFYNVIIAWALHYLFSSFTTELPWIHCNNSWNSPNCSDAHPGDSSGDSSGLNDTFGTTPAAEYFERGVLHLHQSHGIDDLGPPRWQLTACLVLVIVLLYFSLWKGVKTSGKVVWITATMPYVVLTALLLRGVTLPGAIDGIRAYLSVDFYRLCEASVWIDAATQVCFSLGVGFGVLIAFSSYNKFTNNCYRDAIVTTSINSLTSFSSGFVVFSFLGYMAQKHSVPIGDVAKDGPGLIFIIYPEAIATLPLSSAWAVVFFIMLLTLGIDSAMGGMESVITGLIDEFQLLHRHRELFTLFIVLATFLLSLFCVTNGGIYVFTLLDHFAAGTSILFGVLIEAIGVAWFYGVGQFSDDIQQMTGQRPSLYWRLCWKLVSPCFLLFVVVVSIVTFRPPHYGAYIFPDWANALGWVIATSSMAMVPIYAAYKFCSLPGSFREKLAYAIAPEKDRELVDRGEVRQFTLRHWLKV

In the case of `Cc1[nH]c2ccc(Cl)cc2c1C1=CCNCC1` [EMD 386088, 5-chloro-2-methyl-3-(1,2,3,6-tetrahydro-4-pyridinyl)-1H-indole hydrochloride], the Ki – broadly, the dissociation constant of the complex between target and ligand, obtained from inhibition or displacement – came to 41 nM.

(Values after PMC4939156, “Study of a mechanism responsible for potential antidepressant activity of EMD 386088, a 5-HT6 partial agonist in rats” (Naunyn-Schmiedeberg's Archives of Pharmacology, 2016).)
